One test concerns the target T1, CRBN (Homo sapiens, UniProt Q96SW2).
T1 construct: expressed in transfected cells; host or cells: HEK293T
As to the kind of experiment: Intracellular CRBN binding in NanoLuc-CRBN-overexpressing HEK293T cells. It is filed as cell-based. Particulars: read-out: Cellular CRBN Binding IC50 (nM ± SD). Here is the method: NanoLuc‐CRBN‐overexpressing HEK293T were seeded in 96‐well plates at a density of 2000 per well. The following day, compounds was added to the plate starting from 10 µM for a 3‐fold gradient dilution and incubated for 2 h. […] Finally, the signal was measured using an Envision plate reader (Revvity) and the data were analyzed using the GraphPad Prism 9.5 software.

The target in a further test is T2, TEAD4 (Homo sapiens, UniProt Q15561).
T2 construct: endogenous in cells; host or cells: HEK293T HiBiT knock-in
T2 sequence (Q15561 whole entry): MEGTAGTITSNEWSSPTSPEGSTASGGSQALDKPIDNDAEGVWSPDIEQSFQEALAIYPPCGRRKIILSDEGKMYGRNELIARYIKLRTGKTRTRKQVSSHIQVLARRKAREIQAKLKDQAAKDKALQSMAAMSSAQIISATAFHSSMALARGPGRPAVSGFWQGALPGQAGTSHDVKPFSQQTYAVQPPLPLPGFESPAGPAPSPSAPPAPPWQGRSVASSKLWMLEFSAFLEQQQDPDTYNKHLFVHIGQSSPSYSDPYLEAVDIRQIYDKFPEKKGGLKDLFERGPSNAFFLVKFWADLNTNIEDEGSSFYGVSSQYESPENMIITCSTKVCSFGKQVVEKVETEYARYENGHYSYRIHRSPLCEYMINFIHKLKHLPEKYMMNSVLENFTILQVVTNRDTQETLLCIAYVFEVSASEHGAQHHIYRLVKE
As to the kind of experiment: HiBiT degradation assay, HEK293T HiBiT-TEAD4. Format: cell-based. Particulars: 6 h. Here is the method: HiBiT cells were inoculated into 96‐well flat‐bottomed tissue culture plates at a density of 50 000 cells per well, followed by adding degraders into the wells using the I‐DOT dispenser. After 6 h of incubation, the cells were lysed and assayed for degradation using the Nano‐Glo HiBiT Lysis Assay System (Promega, #N3030). Luminescence signals were read using an Envision plate reader (Revvity) and the data were analyzed using GraphPad Prism 9.5 software.
The ribonucleoprotein (RNP) complex was prepared by mixing 2 µg of NLS‐Cas9‐EGFP nuclease (Novoprotein, #E379‐01A), 50 pmol of sgRNA, 10 µL of electrotransfer solution, and 50 pmol of designed donor DNA, then incubated for 10 min at room temperature. One million HEK293T cells were resuspended in 10 µL of electrotransfection solution and mixed with 10 µL of the RNP complex. Electroporation was performed using a Celetrix SP100 electroporator at 480 V. After electroporation, the cells were transferred to antibiotic‐free DMEM complete medium for overnight culture. The following day, EGFP‐positive cells were sorted using a Sony MA 900 cell sorter, plated in a 96‐well cell culture plate (Servicebio, #CCP‐96H), and cultured for 4 weeks. After this period, positive clones were screened using the Nano‐Glo HiBiT Lytic Detection system (Promega, #N3030).
(In general: HiBiT is a short tag that completes a luciferase, so light tracks the accessible tagged protein.)

The test system of the next test is MSTO-211H cells. As to the kind of experiment: Cell viability assay (CTG, 72 h) MSTO-211H. Particulars: Homo sapiens. Format: cell-based. As for the experimental part:
(§1) Cells were seeded at a density of 1000 cells per well in 96‐well flat‐bottomed cell culture plates and cultured overnight at 37 °C with 5% CO2 to allow for cell attachment. The following day, different concentrations of compounds were added using an I‐DOT dispenser. After 72 h, 25 µL of CellTiter‐Meiluncell Luminescent Cell Viability Reagent (Meilunbio, #PWL111‐2) was added and incubated for 15 min at room temperature. Luminescence signals were then measured using an Envision plate reader (Revvity). Data were analyzed using GraphPad Prism 9.5 software.^[ [30] ^]

Test [1] concerns A172 cells. As to the kind of experiment: Cell viability assay (CTG, 72 h) A172. The following applies: Homo sapiens, A 172, 72 h, 3-day compound treatment. Format: cell-based. As for the experimental part: as §1
The next test has as its system KLE cells. As to the kind of experiment: Cell viability assay (CTG, 72 h) KLE. Particulars: Homo sapiens, KLE, 72 h, 3-day compound treatment. It is filed as cell-based. As for the experimental part:
as §1

The test system of the next test is HOS cells. The experiment in a line: Cell viability assay (CTG, 72 h) HOS. Format: cell-based. Particulars: Homo sapiens, HOS, 72 h, 3-day compound treatment. Here is the method:
as §1

For a further test, the system named is MSTO-211H xenograft. As to the kind of experiment: MSTO-211H xenograft pharmacodynamic study (3 mg/kg i.p.). The following applies: 3 mg/kg i.p. q.d. 21 days. It is filed as in vivo, BALB/c nude mice. As for the experimental part:
Animal experiments were conducted by Medsyin (Shanghai) Co., Ltd. The experimental protocol was approved by the IACUC of the company (No.: PZWH20240527‐1) and strictly adhered to the guidelines of AAALAC. The specific procedures are as follows: 5 × 10^6 MSTO‐211H cells were suspended in 100 µL of a mixture of PBS and Matrigel and inoculated subcutaneously into the right axilla of 6‐week‐old BALB/c nude mice. Drug administration was initiated on day 7 after cell inoculation (when the average tumor volume was ≈150 mm^3). The experiment was divided into two groups: one group served as the control group, and the other group received drug administration via intraperitoneal injection at a dose of 3 mg kg^−1 (6 mice in each group), once a day for 21 consecutive days. During the experiment, the body weight and tumor volume of the mice were measured twice a week. At the end of the experiment, the mice were sacrificed and tumor tissues were collected.

Test [2] has as its system A172 cells. As to the kind of experiment: DIA proteomics in A172 cells. The following applies: 100 nM, 24 h. It is filed as cell-based, Homo sapiens. Here is the method:
Cells were seeded in 6‐well plates at 1 × 10⁶ cells well^−1 and treated with 100 nM KG‐FP‐003 (n = 3). After 24 h incubation, cells were harvested, washed with ice‐cold PBS, and stored at −80 °C. Cell pellets were lysed in 4 volumes of lysis buffer (1% SDS, 1% protease inhibitor cocktail) followed by 3 min sonication on ice. After centrifugation (12 000 g, 10 min, 4 °C), supernatants were collected for BCA protein quantification. Proteins were reduced with 5 mM DTT (56 °C, 30 min), alkylated with 11 mM iodoacetamide (RT, dark, 15 min), and diluted with 200 mM TEAB to reduce urea concentration below 2 M. Trypsin digestion (1:50 enzyme‐to‐protein ratio) was performed at 37 °C overnight followed by additional 4 h digestion. Peptides were desalted using Strata‐X SPE columns. […] MS analysis was performed on a timsTOF Pro mass spectrometer in dia‐PASEF mode (ESI voltage: 1.75 kV; scan range: 300–1500 m z^−1). DIA data were processed using DIA‐NN (v1.8) against the Homo_sapiens_9606_SP_20 231 220.fasta database (20429 entries) with reversed decoys, using trypsin as the cleavage enzyme. Fixed modifications included N‐terminal methionine excision and carbamidomethylation of cysteine, with FDR set at <1%.

Like-named read-outs stand apart in the source and are kept apart here.

T1 sequence (Q96SW2 whole entry): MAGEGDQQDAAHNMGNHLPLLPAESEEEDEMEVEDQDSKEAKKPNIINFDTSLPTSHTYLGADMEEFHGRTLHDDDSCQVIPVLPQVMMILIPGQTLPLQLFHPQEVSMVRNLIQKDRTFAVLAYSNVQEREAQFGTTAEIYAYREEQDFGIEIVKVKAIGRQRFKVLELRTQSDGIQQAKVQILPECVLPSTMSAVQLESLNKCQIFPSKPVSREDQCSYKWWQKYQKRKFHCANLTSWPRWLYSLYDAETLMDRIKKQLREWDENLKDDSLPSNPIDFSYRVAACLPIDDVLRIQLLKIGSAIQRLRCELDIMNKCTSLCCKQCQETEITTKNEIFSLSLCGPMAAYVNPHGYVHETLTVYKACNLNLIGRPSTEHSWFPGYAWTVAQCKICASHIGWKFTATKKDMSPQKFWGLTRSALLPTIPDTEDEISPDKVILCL

Consider `CNC(=O)c1cc2c(c(F)c1-c1c(Cl)c(F)cc3c1C[C@@](CN[C@H]1CC[C@H](C(=O)N4CCC(CC5CCN(C(=O)COc6ccc(N7CCC(=O)NC7=O)c(C)c6)CC5)CC4)CC1)(c1ccccc1)O3)[C@@H](O)[C@@H](C)C2` [KG-FP-003], for which the IC50 on CRBN is 962 ± 86 nM; in the test with MSTO-211H cells (72 h, 3-day antiproliferation, Figure 3C, read-out: IC50 (nM ± SD), MSTO-211H), 47 ± 5 nM; with MSTO-211H cells (wild-type, Figure 3D, read-out: MSTO-211H: WT IC50), 47 ± 5 nM; in the test with A172 cells [1], 7 ± 6 nM; with KLE cells, 59 ± 34 nM; in the test on HOS cells, 1.2 ± 1.5 nM. Besides, it took 7 ± 5 nM to reach half-maximal degradation at TEAD4 (DC50). On TEAD4, the “TEAD4 Dmax” value is on record as “≈ 90%”. At TEAD4 (HEK-293T), this compound returned a Dmax of 88 ± 6%. Besides, the “TEAD1 protein degradation in tumor” value in the test on MSTO-211H xenograft is “pronounced degradation of TEAD1 protein”. Also, in the test with MSTO-211H xenograft, the “Tumor growth inhibition versus vehicle” value is given as “significant tumor growth inhibition”. In addition, the Proteome-wide selectivity result in the test on A172 cells [2] was “significantly and selectively downregulated TEAD1 protein levels”.

In general, IC50 refers to the concentration needed to halve the response being measured. What is called DC50 is the concentration giving 50% degradation. One may read the Dmax as the largest share of the target that was removed. A low value points to shallow degradation.

(Values after PMC12752627, “Discovery of a Potent and Selective TEAD Degrader with Durable Degradation Activity” (Advanced Science, 2025).)
